The subject of data set [1] is Colinus virginianus.
Data set [2] has as its system Tagia sp. Particulars: acute; duration: 14 days; mortality.
Data set [3] concerns Coturnix japonica. Particulars: reproduction developmental.
The subject of data set [4] is Rattus norvegicus.
In data set [5] the test system is Canidae. Particulars: chronic; duration: 1 years; oral; Dog Other.
Data set [6] concerns Oncorhynchus mykiss.
The subject of data set [7] is Anas platyrhynchos.
Data set [8] concerns Apis mellifera. Particulars: acute; oral; unspecified; mortality.
Data set [9] concerns Daphnia magna. Particulars: chronic/long-term; duration: 21 days; reproduction.
Data set [10] deals with Coturnix coturnix. Particulars: acute; oral; diet; mortality.
Where [11] appears, read: reproduction developmental, body weight.

The values below come from EPA's ToxValDB 9.5 (doi:10.2903/j.efsa.2010.1555).

Molecules are shown by their SMILES.

Turning to `CCC([O-])=C1C(=O)CC(C(=O)[O-])CC1=O.[Ca+2]` (stereo unspecified) [Prohexadione-calcium], the LD50 in [1] (acute, oral, mortality) was greater than 2000 mg/kg; in [4] (acute, oral, mortality) it was greater than 5000 mg/kg; in [7] (acute, oral, unspecified, mortality), greater than 2000 mg/kg; in data set [8] it was greater than 100 µg/piece. For the same molecule, the NOEC was determined as 48.8 mg/kg-day in [1] (reproduction developmental); 126 mg/kg-day in data set [3]; 100 mg/L in data set [6] (chronic/long-term, duration: 28 days, growth); 116 mg/kg-day in data set [7] (reproductive); 100 mg/L in [9]. Besides, the LC50 was greater than 1000 mg/kg in data set [2]; greater than 100 µg/mL in data set [6] (acute, duration: 96 hours, mortality); greater than 1350 mg/kg-day in [7] (short-term, oral, feed, mortality); greater than 1210 mg/kg-day in [10]. In addition, the NOAEL (usually the highest dose or exposure tested at which no adverse effect was seen) in data set [4] (setting [11]) worked out at 35 mg/kg-day; in [5], 20 mg/kg-day. In addition, in data set [4] (setting [11]), the NOEL worked out at 35 mg/kg-day.
